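48-hour exposure; five concentrations; linearly interpolated endpoints. Definition used: TGI = concentration required for complete inhibition of growth.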
How the values were obtained:
Experiment in all cases: NCI-60 cell line screen, 48 h
786-0 renal = system: 786-0 renal
A498 renal = system: A498 renal
A549 NSCLC = system: A549 NSCLC
ACHN renal = system: ACHN renal
BT-549 breast = system: BT-549 breast
CAKI-1 renal = system: CAKI-1 renal
CCRF-CEM leukemia = system: CCRF-CEM leukemia
COLO 205 colon = system: COLO 205 colon
DU-145 prostate = system: DU-145 prostate
EKVX NSCLC = system: EKVX NSCLC
HCC-2998 colon = system: HCC-2998 colon
HCT-116 colon = system: HCT-116 colon
HCT-15 colon = system: HCT-15 colon
HL-60(TB) leukemia = system: HL-60(TB) leukemia
HOP-62 NSCLC = system: HOP-62 NSCLC
HOP-92 NSCLC = system: HOP-92 NSCLC
HS 578T breast = system: HS 578T breast
HT29 colon = system: HT29 colon
IGROV1 ovarian = system: IGROV1 ovarian
K-562 leukemia = system: K-562 leukemia
KM12 colon = system: KM12 colon
LOX IMVI melanoma = system: LOX IMVI melanoma
M14 melanoma = system: M14 melanoma
MALME-3M melanoma = system: MALME-3M melanoma
MCF7 breast = system: MCF7 breast
MDA-MB-231 breast = system: MDA-MB-231 breast
MDA-MB-435 = system: MDA-MB-435
MDA-N = system: MDA-N
MOLT-4 leukemia = system: MOLT-4 leukemia
NCI-H226 lung = system: NCI-H226 lung
NCI-H23 lung = system: NCI-H23 lung
NCI-H460 lung = system: NCI-H460 lung
NCI-H522 lung = system: NCI-H522 lung
NCI/ADR-RES ovarian = system: NCI/ADR-RES ovarian
OVCAR-3 ovarian = system: OVCAR-3 ovarian
OVCAR-4 ovarian = system: OVCAR-4 ovarian
OVCAR-5 ovarian = system: OVCAR-5 ovarian
OVCAR-8 ovarian = system: OVCAR-8 ovarian
PC-3 prostate = system: PC-3 prostate
RPMI-8226 leukemia = system: RPMI-8226 leukemia
RXF 393 renal = system: RXF 393 renal
SF-268 CNS = system: SF-268 CNS
SF-295 CNS = system: SF-295 CNS
SF-539 CNS = system: SF-539 CNS
SK-MEL-2 melanoma = system: SK-MEL-2 melanoma
SK-MEL-28 melanoma = system: SK-MEL-28 melanoma
SK-MEL-5 melanoma = system: SK-MEL-5 melanoma
SK-OV-3 ovarian = system: SK-OV-3 ovarian
SN12C renal = system: SN12C renal
SNB-19 CNS = system: SNB-19 CNS
SNB-75 CNS = system: SNB-75 CNS
SR leukemia = system: SR leukemia
SW-620 colon = system: SW-620 colon
T-47D breast = system: T-47D breast
TK-10 renal = system: TK-10 renal
U251 CNS = system: U251 CNS
UACC-257 melanoma = system: UACC-257 melanoma
UACC-62 melanoma = system: UACC-62 melanoma
UO-31 renal = system: UO-31 renal

CCOC(=O)/C=C(\C(=O)OCC)n1cc(C)c(=O)n(Cc2cnnn2COCCOC(C)=O)c1=O
TGI (786-0 renal): 14.9 µM
TGI (A498 renal): 35.9 µM
TGI (A549 NSCLC): 47.1 µM
TGI (ACHN renal): 7.46 µM
TGI (BT-549 breast): 16.3 µM
TGI (CAKI-1 renal): 8.06 µM
TGI (CCRF-CEM leukemia): 5.57 µM
TGI (COLO 205 colon): 4.33 µM
TGI (DU-145 prostate): 48 µM
TGI (EKVX NSCLC): 24.6 µM
TGI (HCC-2998 colon): 30.7 µM
TGI (HCT-116 colon): 22.2 µM
TGI (HCT-15 colon): 12 µM
TGI (HL-60(TB) leukemia): 12.7 µM
TGI (HOP-62 NSCLC): 55.6 µM
TGI (HOP-92 NSCLC): 4.27 µM
TGI (HS 578T breast): 46.8 µM
TGI (HT29 colon): 21.2 µM
TGI (IGROV1 ovarian): 21.8 µM
TGI (K-562 leukemia): 19.2 µM
TGI (KM12 colon): 31.8 µM
TGI (LOX IMVI melanoma): 21 µM
TGI (M14 melanoma): 57.5 µM
TGI (MALME-3M melanoma): 3.42 µM
TGI (MCF7 breast): 24.5 µM
TGI (MDA-MB-231 breast): 42.7 µM
TGI (MDA-MB-435): 28.1 µM
TGI (MDA-N): 44 µM
TGI (MOLT-4 leukemia): 8.7 µM
TGI (NCI-H226 lung): 35 µM
TGI (NCI-H23 lung): 34.2 µM
TGI (NCI-H460 lung): 35.6 µM
TGI (NCI-H522 lung): 2.91 µM
TGI (NCI/ADR-RES ovarian): 43.7 µM
TGI (OVCAR-3 ovarian): 26 µM
TGI (OVCAR-4 ovarian): 32 µM
TGI (OVCAR-5 ovarian): 43.8 µM
TGI (OVCAR-8 ovarian): 20.6 µM
TGI (PC-3 prostate): > 59.2 µM
TGI (RPMI-8226 leukemia): 18.5 µM
TGI (RXF 393 renal): 13.2 µM
TGI (SF-268 CNS): 38.5 µM
TGI (SF-295 CNS): 69.3 µM
TGI (SF-539 CNS): 6.89 µM
TGI (SK-MEL-2 melanoma): 41.7 µM
TGI (SK-MEL-28 melanoma): 31.5 µM
TGI (SK-MEL-5 melanoma): > 51.6 µM
TGI (SK-OV-3 ovarian): > 100 µM
TGI (SN12C renal): 36.2 µM
TGI (SNB-19 CNS): > 61.8 µM
TGI (SNB-75 CNS): 39.9 µM
TGI (SR leukemia): > 34.7 µM
TGI (SW-620 colon): 9.92 µM
TGI (T-47D breast): 28.9 µM
TGI (TK-10 renal): 10.8 µM
TGI (U251 CNS): 43.6 µM
TGI (UACC-257 melanoma): 26.3 µM
TGI (UACC-62 melanoma): 31.1 µM
TGI (UO-31 renal): 27.5 µM

CC1OC(OC2C(O[C@H]3CC[C@@]4(C)C(=CC[C@H]5[C@@H]6C[C@@H]7O[C@]8(CC[C@@H](C)CO8)[C@@H](C)[C@@H]7[C@@]6(C)CC[C@@H]54)C3)OC(CO)C(O)C2O)C(O)C(O)C1O (stereo partly drawn)
TGI (786-0 renal): 2.37 µM
TGI (A498 renal): 2.98 µM
TGI (A549 NSCLC): 1.76 µM
TGI (ACHN renal): 3.44 µM
TGI (BT-549 breast): 8.31 µM
TGI (CAKI-1 renal): 3.54 µM
TGI (CCRF-CEM leukemia): 1.21 µM
TGI (COLO 205 colon): 6.33 µM
TGI (DU-145 prostate): 2.53 µM
TGI (EKVX NSCLC): 6.47 µM
TGI (HCC-2998 colon): 2.26 µM
TGI (HCT-116 colon): 3.95 µM
TGI (HCT-15 colon): 5.21 µM
TGI (HL-60(TB) leukemia): 2.87 µM
TGI (HOP-62 NSCLC): 2.67 µM
TGI (HOP-92 NSCLC): 6.17 µM
TGI (HS 578T breast): 3.85 µM
TGI (HT29 colon): 2.37 µM
TGI (IGROV1 ovarian): 6.08 µM
TGI (K-562 leukemia): > 25 µM
TGI (KM12 colon): 2.19 µM
TGI (LOX IMVI melanoma): 3.49 µM
TGI (M14 melanoma): 2.44 µM
TGI (MALME-3M melanoma): 6.65 µM
TGI (MCF7 breast): 4.12 µM
TGI (MDA-MB-231 breast): 3.14 µM
TGI (MDA-MB-435): 2.8 µM
TGI (MDA-N): 6.54 µM
TGI (MOLT-4 leukemia): > 25 µM
TGI (NCI-H226 lung): 8.03 µM
TGI (NCI-H23 lung): 5.61 µM
TGI (NCI-H460 lung): 2.34 µM
TGI (NCI-H522 lung): 2.77 µM
TGI (NCI/ADR-RES ovarian): 4.64 µM
TGI (OVCAR-3 ovarian): 6.65 µM
TGI (OVCAR-4 ovarian): 2.47 µM
TGI (OVCAR-5 ovarian): 6.16 µM
TGI (OVCAR-8 ovarian): 3.63 µM
TGI (PC-3 prostate): 1.63 µM
TGI (RPMI-8226 leukemia): > 25 µM
TGI (RXF 393 renal): 3.04 µM
TGI (SF-268 CNS): 5.46 µM
TGI (SF-295 CNS): 2.44 µM
TGI (SF-539 CNS): 4.53 µM
TGI (SK-MEL-2 melanoma): 6.21 µM
TGI (SK-MEL-28 melanoma): > 11.8 µM
TGI (SK-MEL-5 melanoma): 7.52 µM
TGI (SK-OV-3 ovarian): 6.14 µM
TGI (SN12C renal): 3.27 µM
TGI (SNB-19 CNS): 2.38 µM
TGI (SNB-75 CNS): 2.62 µM
TGI (SR leukemia): 6.71 µM
TGI (SW-620 colon): 2.31 µM
TGI (T-47D breast): 8.66 µM
TGI (TK-10 renal): 3.57 µM
TGI (U251 CNS): 1.87 µM
TGI (UACC-257 melanoma): 4.9 µM
TGI (UACC-62 melanoma): 2.7 µM
TGI (UO-31 renal): 1.98 µM
